# In ChEMBL document CHEMBL5729376, “SSAO inhibitors and use thereof” (2022):
# Legend:
# [1] = target: T1, Amine oxidase [flavin-containing] A (Homo sapiens, UniProt P21397); assay: (§1) SSAO Activity Assay: Amine oxidase activity of recombinant hSSAO, hMAO-A, and hMAO-B isoforms are measured using the MAO-Glo assay kit (Promega, V1402). Ten nL test compounds (with DMSO as vehicle, 0.1% v/v for hSSAO, hMAO-A and hMAO-B) were added into assay plates by Echo, and pre-incubated with 5 μL of enzyme for 30 mins at room temperature before the addition of 5 μL of luminogenic substrate. The substrate concentration is 40 μM for human recombinant SSAO, 40 μM for human recombinant MAO-A, and 4 μM for human recombinant MAO-B. The hSSAO and hMAO-A assays were conducted in the MAO-A reaction buffer in the kit, and the MAO-B assay was conducted in the MAO-B reaction buffer. Oxidation of the substrate was conducted for 1 hr, before the addition of detecting reagent according the manufacture's protocol. The IC50 value of the tested compounds was calculated by fitting the dose response curve using a 4-parameter non-linear regression routine.
# T1 sequence (P21397 whole entry): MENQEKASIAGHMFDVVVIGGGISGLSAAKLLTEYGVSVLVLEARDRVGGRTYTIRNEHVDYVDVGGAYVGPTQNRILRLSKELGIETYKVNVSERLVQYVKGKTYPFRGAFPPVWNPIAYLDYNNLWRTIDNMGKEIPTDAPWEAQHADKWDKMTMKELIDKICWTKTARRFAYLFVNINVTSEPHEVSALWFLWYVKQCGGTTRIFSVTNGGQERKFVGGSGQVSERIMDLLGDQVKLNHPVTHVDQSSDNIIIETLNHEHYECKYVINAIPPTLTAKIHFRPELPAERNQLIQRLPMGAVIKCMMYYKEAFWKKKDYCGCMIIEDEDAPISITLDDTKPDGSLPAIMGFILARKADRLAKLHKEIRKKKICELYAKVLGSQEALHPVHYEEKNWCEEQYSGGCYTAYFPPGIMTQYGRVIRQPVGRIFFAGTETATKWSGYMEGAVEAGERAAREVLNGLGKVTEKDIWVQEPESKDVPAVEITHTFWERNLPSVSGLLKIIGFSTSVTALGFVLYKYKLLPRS
# [2] = target: T2, Amine oxidase [flavin-containing] B (Homo sapiens, UniProt P27338); assay: as §1
# T2 sequence (P27338 whole entry): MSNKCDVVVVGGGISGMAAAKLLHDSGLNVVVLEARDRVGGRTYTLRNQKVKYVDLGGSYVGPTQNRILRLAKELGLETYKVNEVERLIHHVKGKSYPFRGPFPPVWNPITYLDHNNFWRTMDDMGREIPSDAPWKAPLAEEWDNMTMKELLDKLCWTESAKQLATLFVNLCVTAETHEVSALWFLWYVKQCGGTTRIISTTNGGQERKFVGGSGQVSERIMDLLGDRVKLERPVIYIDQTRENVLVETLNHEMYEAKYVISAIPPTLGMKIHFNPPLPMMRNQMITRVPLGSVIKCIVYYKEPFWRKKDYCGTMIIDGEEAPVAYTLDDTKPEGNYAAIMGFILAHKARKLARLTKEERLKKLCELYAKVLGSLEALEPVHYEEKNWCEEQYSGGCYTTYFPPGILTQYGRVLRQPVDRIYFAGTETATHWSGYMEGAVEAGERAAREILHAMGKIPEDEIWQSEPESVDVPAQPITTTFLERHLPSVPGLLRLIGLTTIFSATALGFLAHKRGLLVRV
Structure (SMILES),IC50 [1] [µM],IC50 [2] [µM]
CC(C)(C)C(=O)N1CCC(CS(=O)(=O)c2ccc(OC/C(=C/F)CN)cc2)CC1,> 30,> 30
CN(C(=O)C1CC1)C12CCC(CS(=O)(=O)c3ccc(OC/C(=C/F)CN)cc3)(CC1)CC2,> 30,> 30
CO[C@H]1CC[C@@H](CS(=O)(=O)c2ccc(OC/C(=C/F)CN)cc2)CC1,10 to 30,10 to 30
CC(C)(C)C(=O)NC12CCC(CS(=O)(=O)c3ccc(OC/C(=C/F)CN)cc3)(CC1)C2,< 10,–
CC1(C)COC(CS(=O)(=O)c2ccc(OC/C(=C/F)CN)cc2)CO1 (stereo not given),> 30,< 10
NC/C(=C\F)COc1ccc(S(=O)(=O)CC23CCC(C4(O)CC4)(CC2)CC3)cc1,> 30,–
NC/C(=C\F)COc1ccc(S(=O)(=O)C[C@H]2CC[C@H](O)CC2)cc1,10 to 30,10 to 30
COCC(COC)CS(=O)(=O)c1ccc(OC/C(=C/F)CN)cc1,> 30,< 10
NC/C(=C\F)COc1ccc(S(=O)(=O)CC2CCN(C(=O)C3CC3)CC2)c(Cl)c1,> 30,> 30
COC1(CS(=O)(=O)c2ccc(OC/C(=C/F)CN)cc2)CCOCC1,> 30,< 10
NC/C(=C\F)COc1ccc(S(=O)(=O)CC23CCC(NC(=O)C4CC4)(CC2)CC3)cc1,> 30,–
NC/C(=C\F)COc1ccc(S(=O)(=O)COC2CCN(C(=O)C3CCCC3)CC2)cc1,> 30,> 30
CC(C)C(=O)Nc1ccc(CS(=O)(=O)c2ccc(OC/C(=C/F)CN)cc2)cc1,> 30,< 10
CC(C)C(=O)N1CC(CS(=O)(=O)c2ccc(OC/C(=C/F)CN)cc2)C1,> 30,< 10
NC/C(=C\F)COc1ccc(S(=O)(=O)COC2CCOCC2)cc1,> 30,< 10
NC/C(=C\F)COc1ccc(S(=O)(=O)CC23CCC(C(=O)NC4CCC4)(CC2)CC3)cc1,> 30,–
CC1CCN(C23CCC(CS(=O)(=O)c4ccc(OC/C(=C/F)CN)cc4)(CC2)CC3)C1=O (stereo not given),> 30,–
NC/C(=C\F)COc1ccc(S(=O)(=O)C[C@H]2CCOC2)cc1,10 to 30,< 10
C[C@H](CN1CCCC1=O)CS(=O)(=O)c1ccc(OC/C(=C/F)CN)cc1,> 30,> 30
CC(C)C(=O)N1CCC(C)(CS(=O)(=O)c2ccc(OC/C(=C/F)CN)cc2)CC1,> 30,> 30

Structure (SMILES),IC50 [1] [µM],IC50 [2] [µM]
CC1(CS(=O)(=O)c2ccc(OC/C(=C/F)CN)cc2)CCN(C(=O)C2(C)CC2)CC1,–,< 10
CC1(CS(=O)(=O)c2ccc(OC/C(=C/F)CN)cc2)CCOCC1,> 30,< 10
NC/C(=C\F)COc1ccc(S(=O)(=O)Cc2ccc(C(=O)N3CCCC3)cc2)cc1,> 30,> 30
CC(C)N(C)C(=O)C(C)(C)CS(=O)(=O)c1ccc(OC/C(=C/F)CN)cc1,> 30,> 30
NC/C(=C\F)COc1ccc(S(=O)(=O)CC23CCC(NC(=O)CC(F)(F)F)(CC2)CC3)cc1,> 30,> 30
CC(C)C(=O)N(C)CC(C)(C)CS(=O)(=O)c1ccc(OC/C(=C/F)CN)cc1,> 30,–
CC1(COCS(=O)(=O)c2ccc(OC/C(=C/F)CN)cc2)CCOCC1,> 30,< 10
NC/C(=C\F)COc1ccc(S(=O)(=O)C[C@H]2CC[C@@H](O)CC2)cc1,< 10,< 10
NC/C(=C\F)COc1ccc(S(=O)(=O)C[C@@H]2CCCO2)cc1,> 30,< 10
NC/C(=C\F)COc1ccc(S(=O)(=O)C[C@H]2CCCO2)cc1,> 30,< 10
NC/C(=C\F)COc1ccc(S(=O)(=O)CC2CCOCC2)cc1F,< 10,< 10
CC1(C(=O)N2CCN(CS(=O)(=O)c3ccc(OC/C(=C/F)CN)cc3)C(=O)C2)CCC1,–,< 10
NC/C(=C\F)COc1ccc(S(=O)(=O)CC2(O)CCOCC2)cc1,> 30,< 10
NC/C(=C\F)COc1ccc(S(=O)(=O)Cc2ccc(C(=O)NC3CCC3)c(C(F)(F)F)c2)cc1,> 30,–
NC/C(=C\F)COc1ccc(S(=O)(=O)C[C@H]2CC[C@H](NC(=O)C3CC3)CC2)cc1,> 30,< 10
CCN(CC(C)(C)CS(=O)(=O)c1ccc(OC/C(=C/F)CN)cc1)C(=O)C(C)C,> 30,–
NC/C(=C\F)COc1ccc(S(=O)(=O)C[C@@H]2CCOC2)cc1,10 to 30,< 10
COCS(=O)(=O)c1ccc(OC/C(=C/F)CN)cc1,> 30,–
CC(C)C(=O)N1CCC(CS(=O)(=O)c2ccc(OC/C(=C/F)CN)cc2)C1 (stereo not given),–,> 30

# Now from value to compound:
IC50 [1] [µM],IC50 [2] [µM],Structure (SMILES)
< 10,< 10,NC/C(=C\F)COc1ccc(S(=O)(=O)CC2CCOCC2)c(F)c1
> 30,10 to 30,NC/C(=C\F)COc1ccc(S(=O)(=O)COCC2CCOCC2)cc1
> 30,< 10,COCC(COC)OCS(=O)(=O)c1ccc(OC/C(=C/F)CN)cc1
> 30,> 30,COCCOCS(=O)(=O)c1ccc(OC/C(=C/F)CN)cc1
–,< 10,N#CC1(CS(=O)(=O)c2ccc(OC/C(=C/F)CN)cc2)CCOCC1
> 30,–,NC/C(=C\F)COc1ccc(S(=O)(=O)CC23CCC(O)(CC2)CC3)cc1
> 30,> 30,NC/C(=C\F)COc1ccc(S(=O)(=O)CC23CCC(N4CCCS4(=O)=O)(CC2)CC3)cc1
> 30,–,NC/C(=C\F)COc1ccc(S(=O)(=O)COCC2CCN(C(=O)C3(C(F)(F)F)CC3)CC2)cc1
–,< 10,CC(C)(C)C(=O)N1CCN(CS(=O)(=O)c2ccc(OC/C(=C/F)CN)cc2)C(=O)C1
> 30,< 10,NC/C(=C\F)COc1ccc(S(=O)(=O)CC2CCOCC2)cc1
> 30,> 30,N#CC1(COCS(=O)(=O)c2ccc(OC/C(=C/F)CN)cc2)CCOCC1
> 30,> 30,NC/C(=C\F)COc1ccc(S(=O)(=O)CC23CCC(C(=O)N4CCC(F)(F)CC4)(CC2)CC3)cc1
> 30,< 10,N#CC12CCC(CS(=O)(=O)c3ccc(OC/C(=C/F)CN)cc3)(CC1)CC2
–,< 10,NC/C(=C\F)COc1ccc(S(=O)(=O)CC2CCOCC2)c(Cl)c1
> 30,< 10,CC(C)C(=O)N1CCC(C)(COCS(=O)(=O)c2ccc(OC/C(=C/F)CN)cc2)CC1
10 to 30,< 10,CO[C@H]1CC[C@H](CS(=O)(=O)c2ccc(OC/C(=C/F)CN)cc2)CC1
> 30,> 30,C[C@@H](CN1CCCC1=O)CS(=O)(=O)c1ccc(OC/C(=C/F)CN)cc1
–,< 10,NC/C(=C\F)COc1ccc(S(=O)(=O)CC2CCN(C(=O)C34CC(F)(C3)C4)CC2)cc1
> 30,> 30,NC/C(=C\F)COc1ccc(S(=O)(=O)CC23CCC(C4(NC(=O)C5CC5)CC4)(CC2)CC3)cc1
< 10,< 10,CC1(CS(=O)(=O)c2ccc(OC/C(=C/F)CN)cc2F)CCOCC1
> 30,< 10,CC1(COCS(=O)(=O)c2ccc(OC/C(=C/F)CN)cc2)CCN(C(=O)C(C)(C)C)CC1
> 30,–,CN(C)C(=O)C12CCC(CS(=O)(=O)c3ccc(OC/C(=C/F)CN)cc3)(CC1)CC2
< 10,< 10,NC/C(=C\F)COc1ccc(S(=O)(=O)CC2CCN(C(=O)c3ccc(F)cc3)CC2)cc1
